Measurements taken from US20240398835A1, “METHODS FOR TREATING CONGENITAL DISORDERS OF GLYCOSYLATION” (priority 2023, published 2024).

Key:
Assay type in all cases: in vivo
[1] = system: R318W PM 1 (R318W Human / R298W C. elegans point mutation); test: C. elegans model growth assay (worm body area), R318W PM 1 line
Method: (§1) Five lines of GMPPA disorder models were generated in C. elegans using CRISPR/Cas9 gene editing: • One line GMPPA Human (Y47DA9.1 C. elegans) knockout (GMPPA KO) • Two lines T292P Human (S272P C. elegans) point mutation (T292P PM1, T292P PM2) • Two lines R318W Human (R298W C. elegans) point mutation (R318W PM1, R318W PM2)
(§2) These animals were tested for growth delays, temperature sensitivity, and mitotic stress sensitivity, with the dual goals of validating C. elegans as a model for studying GMPPA-CDG and identifying a robust phenotype that could be leveraged in future screening of novel pharmaceuticals for the treatment of the deleterious effects of this mutation.
(§3) To assess the effect of Compounds 1-6 on mitigating the growth deficit of C. elegans carrying a mutation in the GMPPA gene, the growth of the five mutant GMPPA C. elegans lines that were either untreated or treated with one of 6 different drugs (Compounds 1-6), at different concentrations, was measured. C. elegans were allowed to develop to the LI larval stage in the liquid solution. LI C. elegans were then placed onto plates seeded with inactivated OP50 containing the appropriate drug treatment in 0.1% DMSO, and were kept at 20° C. throughout the assay. About thirty 30 C. elegans synchronized at the LI stage of each genotype were placed onto 3 replicate plates containing the appropriate drug treatment and allowed to grow to adulthood at 20° C. Plates were imaged at the same time each day using the WormLab system (MBF Bioscience). Worm area was measured using the WormLab software. Animal sizes of each treatment were compared to sizes of untreated N2 control animals, as well as untreated animals of the same genotype on each day using ANOVA, followed by post-hoc t-tests corrected for multiple comparisons using the Benjamini-Hochberg correction procedure. Analyses were performed and plotted using custom R code.
(§4) To study the effects of the different drugs on growth, the size (body area) of animals treated with each concentration of each drug was compared to the size (body area) of untreated animals of the same genotype on the same day.

[2] = system: GMPPA KO (GMPPA Human / Y47DA9.1 C. elegans knockout); test: C. elegans model growth assay (worm body area), GMPPA KO line
Method: as §1, §2, §3, §4

[3] = system: T292P PM 1 (T292P Human / S272P C. elegans point mutation); test: C. elegans model growth assay (worm body area), T292P PM 1 line
Method: as §1, §2
as §3, with “code. […]” for “code.”

[4] = system: R318W PM 2 (R318W Human / R298W C. elegans point mutation); test: C. elegans model growth assay (worm body area), R318W PM 2 line
Method: as §1, §2, §3, §4

[5] = system: T292P PM 2 (T292P Human / S272P C. elegans point mutation); test: C. elegans model growth assay (worm body area), T292P PM 2 line; conditions: 200 nM, Young Adult
Method: as §1, §2
To assess the effect of Compounds 1-6 on mitigating the growth deficit of C. elegans carrying a mutation in the GMPPA gene, the growth of the five mutant GMPPA C. elegans lines that were either untreated or treated with one of 6 different drugs (Compounds 1-6), at different concentrations, was measured. C. elegans were allowed to develop to the LI larval stage in the liquid solution. LI C. elegans were then placed onto plates seeded with inactivated OP50 containing the appropriate drug treatment in 0.1% DMSO, and were kept at 20° C. throughout the assay. […] Worm area was measured using the WormLab software. […]

[6] = 200 μM (third concentration group), Young Adult
[7] = 20 μM (as printed, second 20 μM group, last in table), Adult (day 5)
[8] = 20 μM (as printed, second 20 μM group, last in table), Young Adult
[9] = 200 μM (third concentration group), Adult (day 5)
[10] = 200 μM (third concentration group), Adult (day 4)

SMILES	% Increase size (compared to untreated) ([1]; 20 nM, Adult (day 5)) [%]	% Increase size (compared to untreated) ([1]; 20 nM, L3) [%]	% Increase size (compared to untreated) ([1]; 20 nM, Young Adult) [%]	% Increase size (compared to untreated) ([1]; 200 nM, Adult (day 5)) [%]	% Increase size (compared to untreated) ([1]; 200 nM, Young Adult) [%]	% Increase size (compared to untreated) ([1]; 2 μM, Adult (day 5)) [%]	% Increase size (compared to untreated) ([1]; 2 μM, Young Adult) [%]	% Increase size (compared to untreated) ([1]; 20 μM, L3) [%]	% Increase size (compared to untreated) ([2]; 2 μM, Adult (day 4)) [%]	% Increase size (compared to untreated) [1, 7] [%]	% Increase size (compared to untreated) [1, 8] [%]	% Increase size (compared to untreated) ([1]; 20 μM, Adult (day 5)) [%]	% Increase size (compared to untreated) [1, 9] [%]	% Increase size (compared to untreated) [1, 6] [%]	% Increase size (compared to untreated) ([4]; 2 μM, Adult (day 5)) [%]	% Increase size (compared to untreated) ([4]; 2 μM, Young Adult) [%]	% Increase size (compared to untreated) [2, 10] [%]	% Increase size (compared to untreated) ([1]; 20 μM, Young Adult) [%]	% Increase size (compared to untreated) ([4]; 2 μM, Adult (day 4)) [%]	% Increase size (compared to untreated) ([4]; 20 μM, Young Adult) [%]	also measured
CC(C)(C)NC(=O)[C@H]1CC[C@H]2[C@@H]3CC[C@H]4NC(=O)C=C[C@]4(C)[C@H]3CC[C@]12C [Compound 1, finasteride]	8.79	12.77	11.59	7.28	16.92	9.08	12.70	10.73	6.47	–	–	–	–	–	–	–	–	–	–	–	% Increase size (compared to untreated) ([1]; 200 nM, L3): 13.73%
CC(O)(CS(=O)(=O)c1ccc(F)cc1)C(=O)Nc1ccc(C#N)c(C(F)(F)F)c1 (centres unmarked) [Compound 2, N-(4-cyano-3-(trifluoromethyl)phenyl)-3-((4-fluorophenyl)sulfonyl)-2-hydroxy-2-methylpropanamide]	–	–	–	–	–	13.14	15.14	–	–	12.37	9.40	6.98	13.42	15.18	9.82	20.08	10.83	–	–	–	% Increase size (compared to untreated) [3, 6]: 16.12%; % Increase size (compared to untreated) ([2]; 20 μM, Adult (day 4)): 9.60%
CCn1cc(C(=O)O)c(=O)c2cnc(N3CCNCC3)nc21 [Compound 3, 8-Ethyl-5,8-dihydro-5-oxo-2-(1-piperazinyl)pyrido (2,3-d)pyrimidine-6-carboxylic acid]	–	–	–	–	–	8.12	18.05	14.96	12.37	12.27	15.84	12.83	10.51	14.43	–	–	7.92	9.03	11.20	14.52	% Increase size (compared to untreated) ([3]; 2 μM, Adult (day 5)): 14.96%; % Increase size (compared to untreated) ([4]; 20 μM, Adult (day 5)): 5.57%; % Increase size (compared to untreated) ([4]; 20 μM, L3): 11.65%; % Increase size (compared to untreated) ([4]; 200 μM, Adult (day 4)): 8.02%; % Increase size (compared to untreated) ([4]; 200 μM, Adult (day 5)): 5.96%; % Increase size (compared to untreated) ([2]; 2 μM, Young Adult): 12.64%
Cc1nc2n(c(=O)c1CCN1CCC(c3noc4cc(F)ccc34)CC1)CCCC2O (centres unmarked) [Compound 4, 3-(2-(4-(6-fluorobenzo[d]isoxazol-3-yl)piperidin-1-yl)ethyl)-9-hydroxy-2-methyl-6,7,8,9-tetrahydro-4H-pyrido[1,2-a]pyrimidin-4-one]	10.32	–	11.38	11.03	–	9.47	14.09	–	6.86	–	–	10.72	–	–	6.08	–	–	–	–	–	% Increase size (compared to untreated) ([3]; 20 μM, Adult (day 5)): 6.70%; % Increase size (compared to untreated) ([4]; 200 nM, Adult (day 4)): 8.35%; % Increase size (compared to untreated) ([2]; 20 nM, Adult (day 4)): 7.18%
C[C@H](NCc1ccc(OCc2cccc(F)c2)cc1)C(N)=O [Compound 5, (S)-2-((4-((3-fluorobenzyl)oxy)benzyl)amino) propanamide]	11.09	–	–	9.35	–	9.47	16.21	–	–	–	–	–	–	–	5.51	–	–	–	–	–	% Increase size (compared to untreated) ([1]; 2 μM, L3): 16.41%
Cc1ccc2c([nH]c(=O)c3c(=O)cc(C(=O)OCCC(C)C)oc32)c1C [Compound 6, 3-methylbutyl 7,8-dimethyl-4,5-dioxo-6H-pyrano[3,2-c]quinoline-2-carboxylate]	11.15	18.59	27.26	12.15	18.38	7.41	16.84	13.93	6.58	–	–	10.80	–	–	–	18.25	–	18.41	8.97	22.20	% Increase size (compared to untreated) ([4]; 20 nM, Young Adult): 20.62%; % Increase size (compared to untreated) ([4]; 200 nM, Adult (day 4)): 7.96%; % Increase size (compared to untreated) ([4]; 200 nM, Young Adult): 25.23%; % Increase size (compared to untreated) [5]: 13.63%; % Increase size (compared to untreated) ([2]; 20 μM, Young Adult): 13.22%
